Bridge positions count the residues as written; N and C are the ends. Peptide text beside a SMILES is read from it.
Experiments:
[1] = toxicity in vivo, LD50 after intracerebroventricular injection; conditions: mouse, icv or intrathecal, 20 g C57/BL6 mice
Description: Groups of six to eight mice per dose were injected with 5 μl peptide solution containing 0.1% (w/v) bovine serum albumin and 0.9% (w/v) NaCl. The LD50 values are set out in Table 5.

mKv1.3 = mKv1.3 (Mus musculus, UniProt P16390); assay: patch-clamp whole-cell recording, K+ current block; format: cell-based
Sequence of mKv1.3 (P16390 whole entry, the tested form may be a part): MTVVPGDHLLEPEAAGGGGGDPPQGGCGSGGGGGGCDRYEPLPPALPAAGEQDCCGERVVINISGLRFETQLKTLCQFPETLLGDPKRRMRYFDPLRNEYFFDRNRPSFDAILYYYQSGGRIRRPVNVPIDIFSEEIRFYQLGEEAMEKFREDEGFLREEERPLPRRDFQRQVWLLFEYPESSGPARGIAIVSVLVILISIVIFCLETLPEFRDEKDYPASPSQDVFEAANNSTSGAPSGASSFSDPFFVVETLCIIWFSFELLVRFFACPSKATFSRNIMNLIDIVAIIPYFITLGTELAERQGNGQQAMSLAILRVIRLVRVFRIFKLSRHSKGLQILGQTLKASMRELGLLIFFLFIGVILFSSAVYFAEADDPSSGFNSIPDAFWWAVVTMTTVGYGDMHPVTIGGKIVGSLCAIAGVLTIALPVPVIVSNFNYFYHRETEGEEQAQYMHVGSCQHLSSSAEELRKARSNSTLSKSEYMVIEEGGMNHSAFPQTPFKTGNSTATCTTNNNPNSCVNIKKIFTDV
Description: (§1) Electrophysiological experiments were carried out at 22-24° C. using the patch-clamp whole-cell recording mode. Cells were bathed with mammalian Ringer's solution (in mM): 160 NaCl, 4.5 KCl, 2 CaCl2, 1 MgCl2, and 10 HEPES (pH 7.4 with NaOH), with an osmolarity of 290-320 mOsm. […] A syringe-driven perfusion device was used to exchange the external recording bath solution. Two internal pipette solutions were used, one for measuring voltage-gated K^+ currents that contained (in mM): 155 KF, 2 MgCl2, 10 HEPES, and 10 EGTA (pH 7.2 with KOH), with an osmolarity of 290-320 mOsm and another for measuring Ca^2+-activated K^+ currents that contained (in mM): 135 K-aspartate, 8.7 CaCl2, 2 MgCl2, 10 EGTA, 10 HEPES (pH 7.2 with KOH), with an osmolarity of 290-320 mOsm. A free [Ca^2+]i of 1 μM was calculated. All currents through voltage-gated K^+ channels were elicited by 200 ms depolarising voltage steps from −80 to +40 mV. Potassium currents through KCa1.1, KCa2.1 and KCa3.1 were elicited by 1 μM internal [Ca^2+]i and 400 ms voltage ramps from −120 to 0 mV (for KCa3.1 channel and KCa1.1 channel) and from −120 to +40 mV (for KCa2.1 channel). Electrodes were pulled from glass capillaries (Science Products, Germany), and fire-polished to resistances of 2.5-5 MΩ. Membrane currents were measured with an EPC-9 or EPC-10 patch-clamp amplifier (HEKA Elektronik, Lambrecht, Germany) interfaced to a Macintosh computer running acquisition and analysis software (Pulse and PulseFit). When voltage-gated K^+ currents were measured, the capacitive and leak currents were subtracted using a P/10 procedure. Series resistance compensation (>80%) was used for currents above 2 nA. The holding potential was −80 mV in all experiments.

mKv1.1 = mKv1.1 (Mus musculus, UniProt P16388); assay: patch-clamp whole-cell recording, K+ current block; format: cell-based
Sequence of mKv1.1 (P16388 whole entry): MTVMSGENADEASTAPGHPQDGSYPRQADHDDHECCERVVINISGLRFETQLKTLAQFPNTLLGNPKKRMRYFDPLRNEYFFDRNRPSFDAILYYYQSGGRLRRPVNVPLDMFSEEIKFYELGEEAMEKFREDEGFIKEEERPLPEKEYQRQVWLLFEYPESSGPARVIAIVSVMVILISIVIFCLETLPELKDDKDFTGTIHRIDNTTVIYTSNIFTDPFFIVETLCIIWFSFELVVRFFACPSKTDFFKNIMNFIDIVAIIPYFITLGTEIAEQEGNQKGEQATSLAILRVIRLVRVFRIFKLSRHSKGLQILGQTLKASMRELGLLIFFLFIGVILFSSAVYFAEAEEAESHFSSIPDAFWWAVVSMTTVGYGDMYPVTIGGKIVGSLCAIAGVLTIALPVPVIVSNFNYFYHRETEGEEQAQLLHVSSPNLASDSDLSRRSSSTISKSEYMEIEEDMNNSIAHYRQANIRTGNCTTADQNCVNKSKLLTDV
Description: as §1

hKv1.2 = hKv1.2 (Homo sapiens, UniProt P16389); assay: patch-clamp whole-cell recording, K+ current block; format: cell-based
Sequence of hKv1.2 (P16389 whole entry): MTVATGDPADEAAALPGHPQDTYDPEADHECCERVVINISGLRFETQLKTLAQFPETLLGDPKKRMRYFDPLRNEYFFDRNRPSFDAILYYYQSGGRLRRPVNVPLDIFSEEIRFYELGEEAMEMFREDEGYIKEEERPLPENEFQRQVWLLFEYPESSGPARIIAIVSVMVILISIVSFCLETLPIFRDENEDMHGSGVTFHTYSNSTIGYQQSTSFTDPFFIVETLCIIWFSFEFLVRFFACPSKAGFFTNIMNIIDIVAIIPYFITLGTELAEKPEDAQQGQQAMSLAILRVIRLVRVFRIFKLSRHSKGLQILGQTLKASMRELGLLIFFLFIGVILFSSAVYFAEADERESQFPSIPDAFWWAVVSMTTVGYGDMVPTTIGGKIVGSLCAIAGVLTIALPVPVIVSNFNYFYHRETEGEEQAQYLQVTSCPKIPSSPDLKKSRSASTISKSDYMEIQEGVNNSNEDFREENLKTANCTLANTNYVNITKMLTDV
Description: as §1

hIK1 (KCa3.1) = hIK1 (KCa3.1) (Homo sapiens, UniProt O15554); assay: patch-clamp whole-cell recording, Ca2+-activated K+ current block; format: cell-based
Sequence of hIK1 (KCa3.1) (O15554 whole entry): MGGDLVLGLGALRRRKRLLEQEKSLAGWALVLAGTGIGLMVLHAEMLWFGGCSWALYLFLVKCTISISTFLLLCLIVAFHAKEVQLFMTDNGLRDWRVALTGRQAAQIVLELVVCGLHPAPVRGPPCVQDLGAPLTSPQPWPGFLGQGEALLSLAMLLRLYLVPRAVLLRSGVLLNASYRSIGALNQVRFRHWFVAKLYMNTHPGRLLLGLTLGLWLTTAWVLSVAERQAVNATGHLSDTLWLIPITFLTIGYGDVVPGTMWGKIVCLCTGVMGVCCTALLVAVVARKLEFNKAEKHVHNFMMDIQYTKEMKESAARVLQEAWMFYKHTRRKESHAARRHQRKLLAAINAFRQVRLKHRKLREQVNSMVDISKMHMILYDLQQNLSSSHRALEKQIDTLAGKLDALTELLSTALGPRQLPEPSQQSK
Description: as §1

Compound `CC[C@H](C)[C@@H]1NC(=O)[C@H](CCCCN)NC(=O)[C@@H](NC(=O)[C@H](CCCCN)NC(=O)[C@@H](NC(=O)[C@H](CC(N)=O)NC(=O)[C@@H](NC(=O)[C@@H](NC(=O)[C@@H](NC(=O)CN)C(C)C)[C@@H](C)CC)[C@@H](C)CC)C(C)C)CSSC[C@@H]2NC(=O)[C@H](CCCCN)NC(=O)CNC(=O)[C@H](Cc3ccccc3)NC(=O)[C@H](CCCNC(=N)N)NC(=O)[C@H](CCSC)NC(=O)CNC(=O)[C@H](C)NC(=O)[C@H](CC(=O)O)NC(=O)[C@H](CCCCN)NC(=O)[C@@H]3CSSC[C@@H](C(=O)N[C@@H](Cc4ccc(O)cc4)C(=O)N4CCC[C@H]4C(=O)N[C@@H](CCCCN)C(=O)O)NC(=O)[C@H](Cc4c[nH]cn4)NC(=O)[C@H](CSSC[C@H](NC(=O)[C@H](CCC(N)=O)NC(=O)[C@H](CCCNC(=N)N)NC(=O)[C@H](CO)NC1=O)C(=O)N[C@@H](CC(C)C)C(=O)N[C@@H](CCCCN)C(=O)N1CCC[C@H]1C(=O)N3)NC(=O)[C@H](CCCCN)NC(=O)CNC(=O)[C@H](CC(N)=O)NC(=O)[C@H](CCSC)NC2=O` (H-GVIINVKCKISRQCLKPCKDAGMRFGKCMNGKCHCYPK-OH; disulfide 8-28, 14-33, 18-35) has an LD50 [1] of 9 µg/kg, an IC50 (mKv1.3) of 0.122 ± 0.007 nM and an IC50 (mKv1.1) of 34.4 ± 0.3 nM. For the same compound, the IC50 (hKv1.2) was 231.8 ± 0.1 nM and the IC50 (hIK1 (KCa3.1)) was 885 ± 18 nM.

From patent US7745575B1 (Cellpep Pharma Inc., priority 2004, dated 2010)
